Tested on: embryoid bodies formed from pluripotent stem cells
Assay: Selective differentiation of embryoid bodies into hindbrain tissue (region-specific gene expression)
Type: cell-based
Conditions: cultured 7 days
Description: When the density of pluripotent stem cells reached approximately 80%, residues on the cell surface were washed using D-PBS and separated into each cell. Furthermore, the cells were diluted to contain approximately 100,000 cells per 10 ml of the embryoid body formation medium, and approximately 100 μl of the medium containing the cells was injected into each well of an Ultra-Low-attachment U bottom 96 well plate (Corning, 7007). Then, the cells were added in an incubator under a CO2 atmosphere at 37° C. and cultured for about 24 hours to form embryoid bodies. After the embryoid bodies were formed as described above, after about one day, it was confirmed whether one spherical embryoid body with a clean surface was formed well in each well. A hindbrain tissue induction medium containing IWP-2 as an endogenous WNT secretion inhibitor at a concentration of 1 μM and CHIR99021 as a WNT signaling agonist at concentrations of 1 μM, 2 μM, 3 μM, and 5 μM was prepared, and then about 100 μl of the hindbrain tissue induction medium was added to each well containing the embryoid body. About 100 μl of the existing medium was removed once every two days, about 100 μl of the hindbrain tissue induction medium was added, and the embryoid bodies were cultured for 7 days to confirm whether selective differentiation of the embryoid bodies into hindbrain tissue was performed well.

## Cc1c[nH]c(-c2cnc(NCCNc3ccc(C#N)cn3)nc2-c2ccc(Cl)cc2Cl)n1 [CHIR99021]
Hindbrain tissue induction medium with CHIR99021 2 μM to 3 μM plus IWP-2 1 μM
  expression intensities of hindbrain region-specific genes versus other brain region-specific genes: much stronger than those of other brain region-specific genes
Hindbrain tissue induction medium with CHIR99021 approximately 1 μM plus IWP-2 1 μM
  expression of forebrain region-specific genes versus other brain regions: stronger than that of other brain regions
Hindbrain tissue induction medium with CHIR99021 approximately 5 μM plus IWP-2 1 μM
  expression of spinal cord region-specific genes versus other brain regions: stronger than that of other brain regions
Hindbrain tissue induction medium with CHIR99021 more than 1 μM and less than 5 μM plus IWP-2 1 μM, FIGS. 2 to 4
  expression of hindbrain region-specific genes: strongly induced

— patent publication US20260055365A1, “METHOD FOR SELECTIVE DIFFERENTIATION FROM PLURIPOTENT STEM CELLS TO HINDBRAIN TISSUE” (NEXT&BIO INC., priority 2022, published 2026)
